Data reported in ChEMBL document CHEMBL5696441 (Nat Chem Biol, 2011).

How the values were obtained:
[1] = molecular target: Protein-tyrosine kinase 6 (Homo sapiens) (UniProt Q13882); test: Inhibition of BRK (unknown origin) assessed as remaining activity at 1 uM by Kinome scan method relative to control
[2] = molecular target: T1, Serine/threonine-protein kinase Chk1 (Homo sapiens) (UniProt O14757); test: Inhibition of CHEK1 (unknown origin) assessed as remaining activity at 1 uM by Kinome scan method relative to control
T1 sequence (whole entry): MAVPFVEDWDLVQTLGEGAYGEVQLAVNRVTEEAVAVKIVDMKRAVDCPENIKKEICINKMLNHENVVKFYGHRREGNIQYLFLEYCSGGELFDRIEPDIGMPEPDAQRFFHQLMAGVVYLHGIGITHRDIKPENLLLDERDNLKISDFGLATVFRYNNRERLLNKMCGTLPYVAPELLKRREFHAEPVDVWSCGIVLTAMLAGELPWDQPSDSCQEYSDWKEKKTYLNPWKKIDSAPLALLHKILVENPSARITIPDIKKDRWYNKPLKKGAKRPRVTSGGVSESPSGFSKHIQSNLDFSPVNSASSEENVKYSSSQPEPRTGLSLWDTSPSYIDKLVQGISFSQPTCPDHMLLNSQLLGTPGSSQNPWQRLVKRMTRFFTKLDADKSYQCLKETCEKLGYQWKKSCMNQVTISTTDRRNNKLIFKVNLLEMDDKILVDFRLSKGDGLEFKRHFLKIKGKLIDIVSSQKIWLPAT

[3] = molecular target: Serine/threonine-protein kinase DCLK3 (Homo sapiens) (UniProt Q9C098); test: Inhibition of DCAMKL3 (unknown origin) assessed as remaining activity at 1 uM by Kinome scan method relative to control
Serine/threonine-protein kinase DCLK3 (Homo sapiens), sequence (Q9C098 whole entry): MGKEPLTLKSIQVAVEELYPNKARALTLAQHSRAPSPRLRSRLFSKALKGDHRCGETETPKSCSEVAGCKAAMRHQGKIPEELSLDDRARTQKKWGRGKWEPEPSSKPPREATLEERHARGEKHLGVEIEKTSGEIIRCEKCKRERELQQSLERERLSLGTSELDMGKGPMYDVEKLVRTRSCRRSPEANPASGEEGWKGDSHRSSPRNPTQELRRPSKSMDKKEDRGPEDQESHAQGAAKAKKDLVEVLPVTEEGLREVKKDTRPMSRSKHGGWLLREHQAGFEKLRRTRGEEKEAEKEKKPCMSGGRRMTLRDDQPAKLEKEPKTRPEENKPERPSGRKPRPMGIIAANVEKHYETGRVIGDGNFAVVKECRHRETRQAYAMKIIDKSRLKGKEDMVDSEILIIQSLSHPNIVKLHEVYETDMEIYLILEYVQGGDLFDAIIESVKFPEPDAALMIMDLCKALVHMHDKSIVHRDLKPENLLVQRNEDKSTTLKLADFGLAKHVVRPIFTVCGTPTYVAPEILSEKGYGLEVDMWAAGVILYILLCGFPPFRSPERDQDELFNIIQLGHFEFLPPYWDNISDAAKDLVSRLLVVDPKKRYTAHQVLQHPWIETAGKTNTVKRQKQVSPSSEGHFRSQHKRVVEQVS

[4] = molecular target: T2, Serine/threonine-protein kinase Nek1 (Homo sapiens) (UniProt Q96PY6); test: Inhibition of NEK1 (unknown origin) assessed as remaining activity at 1 uM by Kinome scan method relative to control
T2 sequence (whole entry): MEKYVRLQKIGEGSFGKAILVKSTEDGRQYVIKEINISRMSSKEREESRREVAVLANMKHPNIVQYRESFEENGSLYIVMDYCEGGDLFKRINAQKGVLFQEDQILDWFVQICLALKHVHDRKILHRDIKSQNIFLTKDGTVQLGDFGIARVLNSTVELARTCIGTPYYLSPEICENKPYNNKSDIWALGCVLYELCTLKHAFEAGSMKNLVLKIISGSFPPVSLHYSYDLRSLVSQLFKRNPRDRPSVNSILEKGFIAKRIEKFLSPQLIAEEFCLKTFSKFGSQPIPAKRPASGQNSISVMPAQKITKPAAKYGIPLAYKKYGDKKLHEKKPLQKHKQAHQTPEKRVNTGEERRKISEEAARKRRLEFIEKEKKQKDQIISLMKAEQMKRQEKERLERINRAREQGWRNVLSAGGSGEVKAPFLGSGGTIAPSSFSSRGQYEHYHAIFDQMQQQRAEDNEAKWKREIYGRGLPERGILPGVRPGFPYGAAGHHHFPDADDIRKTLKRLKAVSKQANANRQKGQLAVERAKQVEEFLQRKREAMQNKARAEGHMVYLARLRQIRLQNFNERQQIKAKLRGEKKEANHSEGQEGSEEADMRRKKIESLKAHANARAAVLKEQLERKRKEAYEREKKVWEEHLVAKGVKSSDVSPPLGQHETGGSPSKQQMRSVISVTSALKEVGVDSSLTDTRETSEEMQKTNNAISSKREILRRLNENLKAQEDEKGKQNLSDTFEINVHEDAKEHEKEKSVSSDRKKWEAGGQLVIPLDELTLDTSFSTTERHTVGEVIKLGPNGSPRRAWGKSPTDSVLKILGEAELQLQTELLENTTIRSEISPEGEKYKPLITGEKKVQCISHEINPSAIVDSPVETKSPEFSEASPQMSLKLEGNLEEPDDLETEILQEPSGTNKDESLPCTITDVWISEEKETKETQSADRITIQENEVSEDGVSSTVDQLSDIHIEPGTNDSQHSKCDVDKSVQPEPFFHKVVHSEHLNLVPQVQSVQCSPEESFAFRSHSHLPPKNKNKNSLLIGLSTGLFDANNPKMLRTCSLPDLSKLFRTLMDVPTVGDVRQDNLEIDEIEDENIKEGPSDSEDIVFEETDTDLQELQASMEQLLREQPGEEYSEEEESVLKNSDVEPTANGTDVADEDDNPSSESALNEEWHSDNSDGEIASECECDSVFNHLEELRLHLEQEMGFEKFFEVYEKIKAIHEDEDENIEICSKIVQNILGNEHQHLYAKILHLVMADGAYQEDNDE

[5] = molecular target: T3, Serine/threonine-protein kinase Nek2 (Homo sapiens) (UniProt P51955); test: Inhibition of NEK2 (unknown origin) assessed as remaining activity at 1 uM by Kinome scan method relative to control
T3 sequence (whole entry): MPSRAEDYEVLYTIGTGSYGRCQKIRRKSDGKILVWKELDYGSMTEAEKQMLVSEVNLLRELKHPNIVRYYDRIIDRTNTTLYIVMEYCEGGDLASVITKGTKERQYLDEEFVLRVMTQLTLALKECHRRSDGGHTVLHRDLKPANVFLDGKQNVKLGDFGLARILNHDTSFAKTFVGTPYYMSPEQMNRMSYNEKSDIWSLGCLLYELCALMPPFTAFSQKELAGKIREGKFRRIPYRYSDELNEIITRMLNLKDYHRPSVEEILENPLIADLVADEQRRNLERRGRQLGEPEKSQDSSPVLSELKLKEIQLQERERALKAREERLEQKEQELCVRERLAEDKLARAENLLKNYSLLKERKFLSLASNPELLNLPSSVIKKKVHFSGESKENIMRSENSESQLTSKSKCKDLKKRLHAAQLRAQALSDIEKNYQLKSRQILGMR

[6] = molecular target: Cyclin-dependent kinase 17 (Homo sapiens) (UniProt Q00537); test: Inhibition of PCTK2 (unknown origin) assessed as remaining activity at 1 uM by Kinome scan method relative to control
Cyclin-dependent kinase 17 (Homo sapiens), sequence (Q00537 whole entry, looked up): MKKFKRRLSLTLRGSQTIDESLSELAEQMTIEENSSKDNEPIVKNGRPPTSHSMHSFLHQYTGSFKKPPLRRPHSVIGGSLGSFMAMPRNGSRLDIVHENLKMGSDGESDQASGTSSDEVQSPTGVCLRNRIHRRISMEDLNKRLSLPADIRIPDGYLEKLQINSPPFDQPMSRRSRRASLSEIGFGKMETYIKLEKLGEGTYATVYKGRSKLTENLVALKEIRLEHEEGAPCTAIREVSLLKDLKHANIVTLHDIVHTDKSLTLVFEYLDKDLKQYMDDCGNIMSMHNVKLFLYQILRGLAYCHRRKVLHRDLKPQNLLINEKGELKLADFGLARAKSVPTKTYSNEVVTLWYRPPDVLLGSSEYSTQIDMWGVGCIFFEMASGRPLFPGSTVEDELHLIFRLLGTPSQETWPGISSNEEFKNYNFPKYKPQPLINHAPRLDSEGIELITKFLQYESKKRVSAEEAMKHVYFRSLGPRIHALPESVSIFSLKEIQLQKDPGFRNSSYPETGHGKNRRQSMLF

[7] = molecular target: 3-phosphoinositide-dependent protein kinase 1 (Homo sapiens) (UniProt O15530); test: Inhibition of PDPK1 (unknown origin) assessed as remaining activity at 1 uM by Kinome scan method relative to control
3-phosphoinositide-dependent protein kinase 1 (Homo sapiens), sequence (O15530 whole entry, canonical isoform): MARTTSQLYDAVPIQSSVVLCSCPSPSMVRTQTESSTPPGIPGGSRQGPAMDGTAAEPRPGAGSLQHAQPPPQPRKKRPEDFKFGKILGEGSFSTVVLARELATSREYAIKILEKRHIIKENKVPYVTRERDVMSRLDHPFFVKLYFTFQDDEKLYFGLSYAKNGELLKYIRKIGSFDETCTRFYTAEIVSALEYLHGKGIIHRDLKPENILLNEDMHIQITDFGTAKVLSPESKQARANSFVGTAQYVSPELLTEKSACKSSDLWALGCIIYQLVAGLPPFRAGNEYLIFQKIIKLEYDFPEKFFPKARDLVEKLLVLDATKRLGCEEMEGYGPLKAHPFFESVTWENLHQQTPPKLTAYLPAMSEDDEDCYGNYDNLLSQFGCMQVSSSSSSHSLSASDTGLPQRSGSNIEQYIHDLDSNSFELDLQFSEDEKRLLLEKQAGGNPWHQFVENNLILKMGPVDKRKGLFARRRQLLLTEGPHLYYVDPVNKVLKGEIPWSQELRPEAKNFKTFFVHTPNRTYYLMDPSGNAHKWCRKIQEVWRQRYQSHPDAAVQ

[8] = molecular target: Phosphatidylinositol 4,5-bisphosphate 3-kinase catalytic subunit delta isoform (Homo sapiens) (UniProt O00329); test: Inhibition of PIK3CD (unknown origin) assessed as remaining activity at 1 uM by Kinome scan method relative to control
Phosphatidylinositol 4,5-bisphosphate 3-kinase catalytic subunit delta isoform (Homo sapiens), sequence (O00329 whole entry, canonical isoform): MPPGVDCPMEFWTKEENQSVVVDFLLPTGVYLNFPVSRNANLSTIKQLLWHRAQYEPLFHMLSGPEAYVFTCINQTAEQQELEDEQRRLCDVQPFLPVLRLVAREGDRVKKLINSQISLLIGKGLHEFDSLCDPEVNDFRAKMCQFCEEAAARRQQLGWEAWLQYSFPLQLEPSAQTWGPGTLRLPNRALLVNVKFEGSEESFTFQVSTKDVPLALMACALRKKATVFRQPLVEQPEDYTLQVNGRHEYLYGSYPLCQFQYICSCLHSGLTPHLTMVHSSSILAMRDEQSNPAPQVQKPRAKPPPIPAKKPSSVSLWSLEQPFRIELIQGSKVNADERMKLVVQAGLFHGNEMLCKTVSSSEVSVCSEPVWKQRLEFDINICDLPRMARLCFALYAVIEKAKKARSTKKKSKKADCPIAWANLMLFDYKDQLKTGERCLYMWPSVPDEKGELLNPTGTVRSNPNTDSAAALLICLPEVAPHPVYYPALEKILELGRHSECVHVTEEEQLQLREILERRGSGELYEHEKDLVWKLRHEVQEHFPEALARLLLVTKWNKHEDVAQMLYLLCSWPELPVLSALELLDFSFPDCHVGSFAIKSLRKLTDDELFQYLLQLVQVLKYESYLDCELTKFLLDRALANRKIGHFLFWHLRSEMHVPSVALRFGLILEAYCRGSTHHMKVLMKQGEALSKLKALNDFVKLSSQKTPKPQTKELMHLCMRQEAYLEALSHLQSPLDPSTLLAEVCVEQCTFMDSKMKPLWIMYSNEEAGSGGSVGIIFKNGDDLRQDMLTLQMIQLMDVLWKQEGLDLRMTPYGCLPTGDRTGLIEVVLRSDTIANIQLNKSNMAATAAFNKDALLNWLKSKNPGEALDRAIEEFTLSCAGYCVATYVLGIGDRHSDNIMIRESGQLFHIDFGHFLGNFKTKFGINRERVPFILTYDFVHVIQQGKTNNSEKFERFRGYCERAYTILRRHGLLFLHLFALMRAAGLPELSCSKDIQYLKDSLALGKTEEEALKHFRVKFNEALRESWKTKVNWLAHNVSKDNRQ

[9] = molecular target: TGF-beta receptor type-2 (Homo sapiens) (UniProt P37173); test: Inhibition of TGFBR2 (unknown origin) assessed as remaining activity at 1 uM by Kinome scan method relative to control
TGF-beta receptor type-2 (Homo sapiens), sequence (P37173 whole entry): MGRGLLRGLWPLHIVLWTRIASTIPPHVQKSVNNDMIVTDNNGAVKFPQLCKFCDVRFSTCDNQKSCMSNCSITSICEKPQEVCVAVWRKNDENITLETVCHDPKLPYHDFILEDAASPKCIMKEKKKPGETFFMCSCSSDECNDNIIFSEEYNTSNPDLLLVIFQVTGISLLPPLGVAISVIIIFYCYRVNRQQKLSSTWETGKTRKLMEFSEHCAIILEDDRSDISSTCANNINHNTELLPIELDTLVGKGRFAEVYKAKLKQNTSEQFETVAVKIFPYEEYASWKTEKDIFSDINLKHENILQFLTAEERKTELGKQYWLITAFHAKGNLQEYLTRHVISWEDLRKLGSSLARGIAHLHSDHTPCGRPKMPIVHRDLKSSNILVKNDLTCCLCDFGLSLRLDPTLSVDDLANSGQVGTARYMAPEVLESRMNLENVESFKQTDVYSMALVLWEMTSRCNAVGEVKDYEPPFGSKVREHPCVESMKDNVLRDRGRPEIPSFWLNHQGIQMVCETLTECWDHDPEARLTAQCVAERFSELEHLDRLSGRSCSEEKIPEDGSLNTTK

Protein-tyrosine kinase 6 (Homo sapiens), sequence (Q13882 whole entry, looked up): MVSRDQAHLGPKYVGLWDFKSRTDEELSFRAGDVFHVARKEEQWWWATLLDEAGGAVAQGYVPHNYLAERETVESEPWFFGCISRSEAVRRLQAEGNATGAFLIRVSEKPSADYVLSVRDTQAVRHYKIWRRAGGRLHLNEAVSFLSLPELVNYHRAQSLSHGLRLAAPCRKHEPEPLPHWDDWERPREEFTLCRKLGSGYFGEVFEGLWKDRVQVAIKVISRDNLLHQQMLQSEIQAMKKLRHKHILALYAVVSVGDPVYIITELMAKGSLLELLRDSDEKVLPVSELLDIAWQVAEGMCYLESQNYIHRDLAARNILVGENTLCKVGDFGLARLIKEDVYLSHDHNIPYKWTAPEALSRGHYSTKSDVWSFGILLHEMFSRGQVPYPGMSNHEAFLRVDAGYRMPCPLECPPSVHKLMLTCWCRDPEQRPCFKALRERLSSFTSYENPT

Row | SMILES | Activity [1] [%] | Activity [2] [%] | Activity [3] [%] | Activity [4] [%] | Activity [5] [%] | Activity [6] [%] | Activity [7] [%] | Activity [8] [%] | Activity [9] [%]
1 | Nc1ccccc1Nc1ccc2c(c1)CCc1ccccc1C2=O | 97 | 86 | 91 | 90 | 90 | 93 | 90 | 62 | 93
2 | O=C1c2ccc(Nc3ccc(F)cc3F)cc2CCc2ccc(OC[C@H](O)CO)cc21 [Skepinone-L] | 98 | 94 | 99 | 91 | 94 | 89 | 100 | 70 | 100
